This note sets out measurements from patent US9440941B2, “Substituted chroman-6-yloxy-cycloalkanes and their use as pharmaceuticals” (SANOFI, priority 2013, dated 2016).

The target of experiment [1] is T1, human NCX1 (Homo sapiens, UniProt P32418).
T1 construct: expressed in transfected cells
Kind of experiment: Inhibition of Ca2+ efflux out of cells (NCX1 forward mode), FLIPR calcium assay. In kind it is cell-based. As to conditions: CHO cells stably expressing human NCX1; Ca2+ efflux after Ionomycin; read-out: NCX1fw IC50 (inhibition of NCX1 in forward mode). The source says: The sodium/calcium exchanger NCX1 can transport calcium ions and sodium ions through the cell membrane. The transport is an exchange of Ca^2+ and Na^+ in two directions depending on membrane potential and ion gradients. At the first direction, named “forward mode” or “calcium export mode”, Ca^2+ is transported out of the cell and Na^+ is transported into the cell. At the other direction, named “reverse mode” or “calcium import mode”, the transport directions are vice versa. The effect of the compounds of the invention on NCX1 was determined in CHO cells stably expressing human NCX1 (gene symbol SLC8A1; cf. WO 2009/115238). The assay is based on the monitoring of intracellular Ca^2+ concentrations using a calcium-sensitive fluorescence dye which is detected by means of a FLIPR device (Fluorimetric Imaging Plate Reader, Molecular Devices).
Assay Technology—Forward Mode
The assay is based on the monitoring of intracellular Ca^2+ concentrations using the PBX Calcium Assay Kit from BD (Becton, Dickinson and Company) with calcium indicator dye 51-9000177BKa (BD, 640177). CHO cells expressing NCX1 were loaded with the dye, and after a preincubation period with the test compound, lonomycin (Calbiochem, 407950) was added. lonomycin is an ionophor for Ca^2+ ions mediating an increase of intracellular Ca^2+ ions. Consequently, intracellular Ca^2+ ions are exchanged against extracellular Na^+ ions (Ca^2+ efflux, forward mode). The decrease of intracellular Ca^2+ ions was detected by measuring the fluorescence of the calcium indicator dye at a wavelength of 520 nm by a FLIPR device.
Briefly, similarly as for the reverse mode, for the forward mode transport assay 18000 cells per well were seeded into a 96 well microplate (Corning COSTAR 3904) and incubated overnight in culture medium (cf. above). A total volume of 100 μl medium per well was used. For the preparation of the FLIPR assay, the culture medium was removed from the plates and 100 μl of assay buffer (133.8 mM NaCl (Sigma, S5886); 4.7 mM KCl (Sigma, P3911); 1.25 mM MgCl2 (Merck, 1.05833.0250); 3.5 mM CaCl2 (Merck, 1.02083.0250); 5 mM glucose (Sigma, G7021); 10 mM Hepes (Sigma, H4034); pH 7.4)) were added to each well in a washing step. Assay buffer was removed, and 100 μl of a solution of the test compound in assay buffer in different concentrations were added into the wells. Further, 100 μl of dye solution (0.09% (v/v) calcium indicator dye, 9.1% (v/v) signal enhancer (from PBX Calcium Assay Kit); in assay buffer) were added into each well. The plates were incubated in the dark at room temperature for 60 min. Meanwhile a 10 μM solution of lonomycin in assay buffer (additionally containing 0.05% fetal calf serum (cf. above); 4° C.) was prepared and stored in the wells of a 96 well microplate (96 well microplate, polypropylene, U-shape (Greiner Bio-One, 650201)). The fluorescence monitoring was performed at 60 measuring points with measurement intervals of 2 sec. After the fifth measuring point, 50 μl of the lonomycin solution were added to each well of the assay plate to give a final lonomycin concentration of 2 μM. For the determination of the IC50 values the minimal fluorescence value was subtracted from the maximal fluorescence value for the fifteenth to fifty-fifth measuring points. The calculation of the IC50 values via the percentage inhibitions of Ca^2+ efflux out of cells (forward mode) effected by the test compound was performed in Biost@t Speed 2.0. “NCX1fw IC50” in Table 2 means the IC50 value (in μM (micromol/liter)) for inhibition of NCX1 in forward mode.

In experiment [2] the test system is Sprague-Dawley rats. Kind of experiment: In vivo method for determining the effect on heart contractility (left ventricular dp/dtmax). As to conditions: anesthetized male Sprague-Dawley rats, intravenous, vs solvent control. More on the design: species or system rat. On the procedure: B) In Vivo Method for Determining the Effect on Heart Contractility
Adult male Sprague-Dawley rats (Harlan Winkelmann, Borchen, Germany) weighing 340 to 370 g were anesthetized with pentobarbital (100 mg/kg i.p.) and ventilated with a mixture of oxygen (40%) and room air (60%) at a tidal volume of 1 ml/100 g at 60 breaths/min. Body temperature was maintained at 36.5±0.3° C. with a heating lamp and was monitored with a rectal thermo sensor. Systemic blood pressure was measured in the left carotid artery using a pressure transducer (Combitrans; B. Braun Melsungen AG, Melsungen, Germany) connected to a DC-bridge-amplifier (PLUGSYS/ADC Type 663; Harvard Apparatus GmbH, March-Hugstetten, Germany). The electrocardiogram was measured as lead II via subcutaneously placed electrodes connected to a Heart-Rate-Module (PLUGSYS/HRM Type 669; Harvard Apparatus GmbH, March-Hugstetten, Germany). A micro-tip catheter (2 French, SPR-320; Millar Instruments, Houston, Tex., USA) was placed via the right carotid artery into the left ventricle, and the left ventricular pressure (LVP) and the enddiastolic pressure (EDP) were continuously measured. Registration of the hemodynamic data was performed via an analog digital converter by a personal computer using Notocord software (HEM version 3.5). Left ventricular contractility (dp/dtmax) and relaxation (dp/dtmin) were calculated from the LVP signal. For intravenous administration of the test compounds, the left jugular vein was prepared and a PP-50 catheter was inserted. Test compounds were administered either by intravenous bolus injection or by intravenous infusion by means of an infusion pump (Unita; B. Braun Melsungen AG, Melsungen, Germany). Test compounds were dissolved in a mixture of Glycofurol (75%) and Cremophor (25%), and the solution was further diluted with distilled water (1:4). In a typical experiment, several dosages of the test compound were administered subsequently at increasing doses. Statistical significance of the data obtained with drug vs control experiments, in which solvent was administered, was evaluated with the 2-sided ANOVA test (program Everstat). Increases in left ventricular contractility (percent increase) by example compounds are given in Table 3 in comparison to control experiments in which solvent was administered.

Broadly, the IC50 is the midpoint of a concentration-inhibition curve.

With `Cc1ccccc1C1CCc2cc(O[C@H]3CC[C@H](N)CC3)ccc2O1.Cl` (stereo partly drawn) [Example 156, trans-4-(2-o-Tolyl-chroman-6-yloxy)-cyclohexylamine], in experiment [1], the IC50 turned out to be 1500 nM. In addition, the “Contractility increase (left ventricular contractility)” value (from here on “Contractility increase”) in experiment [2] (0.1 mg/kg) is on record as 44%; in experiment [2] (0.3 mg/kg), 110%; in experiment [2] (1.0 mg/kg), 171%.

In the case of `Cc1ccccc1C1CCc2cc(OC3CCC(C(=O)NCc4ccno4)CC3)ccc2O1` (stereo not shown) [Example 158, N-(Isoxazol-5-ylmethyl)-4-(2-o-tolyl-chroman-6-yloxy)-cyclohexanecarboxamide], in experiment [1], the IC50 stood at 2200 nM. Moreover, the “Contractility increase” value in experiment [2] (0.1 mg/kg) was determined as 106%; in experiment [2] (0.3 mg/kg), 139%; in experiment [2] (1.0 mg/kg), 146%.

Regarding `NCC(=O)N[C@H]1CC[C@H](Oc2ccc3c(c2)CC[C@@H](c2ccccc2)O3)CC1` [Example 159, 2-Amino-N-[trans-4-((S)-2-phenyl-chroman-6-yloxy)-cyclohexyl]-acetamide], the IC50 in experiment [1] was determined as 2500 nM. Moreover, the results for the “Contractility increase” value in experiment [2] (0.1 mg/kg), in experiment [2] (0.3 mg/kg) and in experiment [2] (1.0 mg/kg) were 46%, 104% and 140%, respectively.

As for `Cc1ccccc1C1CCc2cc(OC3CCC(NCc4c(C)nn(C)c4C)CC3)ccc2O1` (stereo not shown) [Example 177, 4-(2-o-Tolyl-chroman-6-yloxy)-N-(1,3,5-trimethylpyrazol-4-ylmethyl)-cyclohexylamine], the IC50 in experiment [1] was determined as 200 nM. Besides, the “Contractility increase” value in experiment [2] (0.1 mg/kg) amounted to 29%; in experiment [2] (0.3 mg/kg) it was 81%; in experiment [2] (1.0 mg/kg) it was 134%.

Take `O=C(N[C@H]1CC[C@H](Oc2ccc3c(c2)CCC(c2ccccc2)O3)CC1)[C@@H]1CCCN1` (stereo partly drawn) [Example 180, (S)—N-[trans-4-(2-Phenyl-chroman-6-yloxy)-cyclohexyl]-pyrrolidine-2-carboxamide]: the IC50 in experiment [1] was determined as 10000 nM. The “Contractility increase” value worked out at 26% in experiment [2] (0.1 mg/kg), 66% in experiment [2] (0.3 mg/kg) and 99% in experiment [2] (1.0 mg/kg).

In the case of `Cc1ccccc1[C@@H]1CCc2cc(O[C@H]3CC[C@H](C(=O)NCCO)CC3)ccc2O1` [Example 268, trans-4-((S)-2-o-tolyl-chroman-6-yloxy)-cyclohexanecarboxylic acid (2-hydroxy-ethyl)-amide], the IC50 in experiment [1] turned out to be 500 nM. In addition, the “Contractility increase” value in experiment [2] (0.1 mg/kg) is listed as 108%; in experiment [2] (0.3 mg/kg), 154%; in experiment [2] (1.0 mg/kg) it was 179%.

Turning to `Cc1ccccc1[C@@H]1CCc2cc(O[C@H]3CC[C@H](C(=O)NCCOP(=O)([O-])[O-])CC3)ccc2O1.[Na+].[Na+]` [Example 303, Phosphoric acid mono-(2-{[trans-4-((S)-2-o-tolyl-chroman-6-yloxy)-cyclohexanecarbonyl]-amino}-ethyl) ester disodium salt], the IC50 in experiment [1] was 2500 nM. Further, the “Contractility increase” value stood at 69% in experiment [2] (0.1 mg/kg), 114% in experiment [2] (0.3 mg/kg) and 172% in experiment [2] (1.0 mg/kg).
